Experimental data from patent publication US12428360B2, “Abating unwanted emulsion polymerization during extractive distillation of conjugated diene monomers” (ECOLAB USA INC., priority 2022, dated 2025).

Test: Isoprene polymerization test at 95° C. in heptane (heptane phase, turbidity method)
Procedure: The commercial isoprene was passed through an alumina column to remove stabilizer 4-tert-butylcatechol. A 100 mL jar was charged with 0.2 g active polymerization inhibitor, 40 mL heptane, 40 mL DMF, and a stir bar. The above mixture was stirred at room temperature for 30 minutes and settled for 10 minutes.
Heptane phase: A 100 mL jar was charged with 5.0 mL top layer of previous settled two layers' mixture, 1 mL AIBN (0.0004 g/mL) solution, isoprene 50 g. Hexane was added to make a total weight of 100 g solution. About 13 ml of the above mixture was added to 12 pressure tubes with a stir bar and heated to 95° C. After 30 minutes, and every 30 minutes thereafter, two tubes were retrieved from the block and the polymerization reaction was quenched by cooling in an ice bath. The cooled polymer solutions were immediately diluted with toluene. The soluble polymer in the liquid was determined by turbidity method. Results can be seen in FIG. 2. The data used to generate the trend lines in FIG. 2 can be seen in Table 2.

CCC(C)Nc1ccc(NC(C)CC)cc1 (stereo not shown) [PDA, di-sec-butyl-4,4′-phenylenediamine]
polymerization growth in Heptane phase (polyisoprene) (Time 0, AIBN initiator): 0 w/w % | polymerization growth in Heptane phase (polyisoprene) (Time 30 (minutes per method), AIBN initiator): 0.10% w/w % | polymerization growth in Heptane phase (polyisoprene) (Time 60 (minutes per method), AIBN initiator): 0.24% w/w % | polymerization growth in Heptane phase (polyisoprene) (Time 90 (minutes per method), AIBN initiator): 0.45% w/w % | polymerization growth in Heptane phase (polyisoprene) (Time 120 (minutes per method), AIBN initiator): 0.83% w/w % | polymerization growth in Heptane phase (polyisoprene) (Time 180 (minutes per method), AIBN initiator): 1.05% w/w % | polymerization growth in Heptane phase (polyisoprene) (Time 240 (minutes per method), AIBN initiator): 1.20% w/w %
